Data taken from patent US10131652B2, “Pyrimidinyloxy benzene derivatives as herbicides” (E. I. DU PONT DE NEMOURS AND COMPANY, priority 2014, dated 2018).
Like-named read-outs stand apart in the source and are kept apart here.

Assays:
Type in all cases: in vivo
[1] = tested on: barnyardgrass (Echinochloa crus-galli); assay: Test D flooded paddy test plant response; conditions: Flood (flooded paddy test), visual rating on scale 0 to 100 (0 no effect, 100 complete control), 13 to 15 days
Source text: (§1) Plant species in the flooded paddy test consisted of rice (Oryza sativa), small-flower umbrella sedge (Cyperus difformis), ducksalad (Heteranthera limosa), and bamyardgrass (Echinochloa crus-galli) grown to the 2-leaf stage for testing. At time of treatment, test pots were flooded to 3 cm above the soil surface, treated by application of test compounds directly to the paddy water, and then maintained at that water depth for the duration of the test. Treated plants and controls were maintained in a greenhouse for 13 to 15 days, after which time all species were compared to controls and visually evaluated. Plant response ratings, summarized in Table D, are based on a scale of 0 to 100 where 0 is no effect and 100 is complete control. A dash (-) response means no test result.

[2] = tested on: ducksalad (Heteranthera limosa); assay: Test D flooded paddy test plant response; conditions: Flood (flooded paddy test), visual rating on scale 0 to 100 (0 no effect, 100 complete control), 13 to 15 days
Source text: as §1

[3] = tested on: rice (Oryza sativa); assay: Test D flooded paddy test plant response; conditions: Flood (flooded paddy test), visual rating on scale 0 to 100 (0 no effect, 100 complete control), 13 to 15 days
Source text: as §1

[4] = tested on: small-flower umbrella sedge (Cyperus difformis); assay: Test D flooded paddy test plant response; conditions: Flood (flooded paddy test), visual rating on scale 0 to 100 (0 no effect, 100 complete control), 13 to 15 days
Source text: as §1

[5] = tested on: Italian ryegrass (Lolium multiflorum); assay: Test F pre-/postemergence plant response; conditions: Lolium multiflorum, scale 0 to 100, read-out: Plant response rating, Ryegrass, Italian; for pest or weed control at 16 g/ha: 16 g ai/ha; for pest or weed control at 31 g/ha: 31 g ai/ha; for pest or weed control at 125 g/ha: 125 g ai/ha
Outline: (§2)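 Herbicidal effect judged by eye against controls, scored 0–100 (complete control = 100). Applications: pre-emergence onto seeded silt loam, post-emergence onto 2–18 cm seedlings; greenhouse, 14–21 days.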

[6] = tested on: arrowleaf sida (Sida rhombifolia); assay: Test F pre-/postemergence plant response; conditions: Sida rhombifolia, scale 0 to 100, read-out: Plant response rating, Arrowleaf Sida
Outline: as §2

[7] = tested on: barnyardgrass (Echinochloa crus-galli); assay: Test F pre-/postemergence plant response; conditions: Echinochloa crus-galli, scale 0 to 100, read-out: Plant response rating, Barnyardgrass
Outline: as §2

[8] = tested on: hairy beggarticks (Bidens pilosa); assay: Test F pre-/postemergence plant response; conditions: Bidens pilosa, scale 0 to 100, read-out: Plant response rating, Beggarticks
Outline: as §2

[9] = tested on: kochia (Kochia scoparia); assay: Test F pre-/postemergence plant response; conditions: Bassia scoparia, scale 0 to 100, read-out: Plant response rating, Kochia; for pest or weed control at 16 g/ha: 16 g ai/ha; for pest or weed control at 31 g/ha: 31 g ai/ha; for pest or weed control at 125 g/ha: 125 g ai/ha
Outline: as §2

[10] = tested on: large (Lg) crabgrass (Digitaria sanguinalis); assay: Test F pre-/postemergence plant response; conditions: Digitaria sanguinalis, pre-emergence, scale 0 to 100, read-out: Plant response rating, Crabgrass, Large
Outline: as §2

[11] = tested on: nightshade (eastern black nightshade, Solanum ptycanthum); assay: Test F pre-/postemergence plant response; conditions: Solanum, pre-emergence, scale 0 to 100, read-out: Plant response rating, Nightshade
Outline: as §2

[12] = tested on: ragweed (common ragweed, Ambrosia elatior); assay: Test F pre-/postemergence plant response; conditions: Ambrosia artemisiifolia, pre-emergence, scale 0 to 100, read-out: Plant response rating, Ragweed
Outline: as §2

[13] = tested on: surinam grass (Brachiaria decumbens); assay: Test F pre-/postemergence plant response; conditions: Urochloa decumbens, pre-emergence, scale 0 to 100, read-out: Plant response rating, Surinam Grass
Outline: as §2

[14] = tested on: velvetleaf (Abutilon theophrasti); assay: Test F pre-/postemergence plant response; conditions: Abutilon theophrasti, pre-emergence, scale 0 to 100, read-out: Plant response rating, Velvetleaf
Outline: as §2

[15] = tested on: yellow nutsedge (Cyperus esculentus); assay: Test F pre-/postemergence plant response; conditions: Cyperus, pre-emergence, scale 0 to 100, read-out: Plant response rating, Nutsedge, Yellow
Outline: as §2

[16] = post-emergence, 8 g ai/ha Postemergence
[17] = post-emergence, 62 g ai/ha, Postemergence
[18] = pre-emergence, 8 g ai/ha Preemergence
[19] = post-emergence, 16 g ai/ha Postemergence
[20] = post-emergence, 31 g ai/ha Postemergence
[21] = post-emergence, 62 g ai/ha Postemergence
[22] = post-emergence, 125 g ai/ha Postemergence
[23] = pre-emergence, 16 g ai/ha Preemergence
[24] = pre-emergence, 31 g ai/ha Preemergence
[25] = pre-emergence, 62 g ai/ha Preemergence
[26] = pre-emergence, 125 g ai/ha Preemergence

Structure (SMILES): FC(F)c1cc(-c2ccccc2Oc2ncc(Cl)cn2)on1 [Compound 53, 5-chloro-2-[2-[3-(difluoromethyl)-5-isoxazolyl]phenoxy]pyrimidine]
- Plant response rating, Barnyardgrass ([1]; 31 g ai/ha): 0
- Plant response rating, Barnyardgrass ([1]; 62 g ai/ha): 0
- Plant response rating, Barnyardgrass ([1]; 125 g ai/ha): 0
- Plant response rating, Barnyardgrass ([1]; 250 g ai/ha): 0
- Plant response rating, Ducksalad ([2]; 31 g ai/ha): 40
- Plant response rating, Ducksalad ([2]; 62 g ai/ha): 50
- Plant response rating, Ducksalad ([2]; 125 g ai/ha): 80
- Plant response rating, Ducksalad ([2]; 250 g ai/ha): 80
- Plant response rating, Rice ([3]; 31 g ai/ha): 0
- Plant response rating, Rice ([3]; 62 g ai/ha): 0
- Plant response rating, Rice ([3]; 125 g ai/ha): 0
- Plant response rating, Rice ([3]; 250 g ai/ha): 0
- Plant response rating, Sedge, Umbrella ([4]; 31 g ai/ha): 0
- Plant response rating, Sedge, Umbrella ([4]; 62 g ai/ha): 0
- Plant response rating, Sedge, Umbrella ([4]; 125 g ai/ha): 70
- Plant response rating, Sedge, Umbrella ([4]; 250 g ai/ha): 75
- pest or weed control at 8 g/ha [5, 16]: 0%
- pest or weed control at 16 g/ha ([5]; post-emergence, Postemergence): 0%
- pest or weed control at 31 g/ha ([5]; post-emergence, Postemergence): 0%
- pest or weed control at 62 g/ha [5, 17]: 5%
- pest or weed control at 125 g/ha ([5]; post-emergence, Postemergence): 0%
- pest or weed control at 8 g/ha [5, 18]: 0%
- pest or weed control at 16 g/ha ([5]; pre-emergence, Preemergence): 0%
- pest or weed control at 31 g/ha ([5]; pre-emergence, Preemergence): 0%
- pest or weed control at 125 g/ha ([5]; pre-emergence, Preemergence): 0%
- pest or weed control at 62 g/ha ([5]; pre-emergence, Preemergence): 0%
- pest or weed control at 8 g/ha [6, 16]: 70%
- pest or weed control at 16 g/ha [6, 19]: 90%
- pest or weed control at 31 g/ha [6, 20]: 98%
- pest or weed control at 62 g/ha [6, 21]: 100%
- pest or weed control at 125 g/ha [6, 22]: 98%
- pest or weed control at 8 g/ha [6, 18]: 0%
- pest or weed control at 16 g/ha [6, 23]: 20%
- pest or weed control at 31 g/ha [6, 24]: 65%
- pest or weed control at 62 g/ha [6, 25]: 100%
- pest or weed control at 125 g/ha [6, 26]: 100%
- pest or weed control at 8 g/ha [7, 16]: 0%
- pest or weed control at 16 g/ha [7, 19]: 0%
- pest or weed control at 31 g/ha [7, 20]: 0%
- pest or weed control at 62 g/ha [7, 21]: 0%
- pest or weed control at 125 g/ha [7, 22]: 10%
- pest or weed control at 8 g/ha [7, 18]: 0%
- pest or weed control at 16 g/ha [7, 23]: 0%
- pest or weed control at 31 g/ha [7, 24]: 0%
- pest or weed control at 62 g/ha [7, 25]: 20%
- pest or weed control at 125 g/ha [7, 26]: 50%
- pest or weed control at 8 g/ha [8, 16]: 15%
- pest or weed control at 16 g/ha [8, 19]: 30%
- pest or weed control at 31 g/ha [8, 20]: 40%
- pest or weed control at 62 g/ha [8, 21]: 50%
- pest or weed control at 125 g/ha [8, 22]: 60%
- pest or weed control at 8 g/ha [8, 18]: 0%
- pest or weed control at 16 g/ha [8, 23]: 0%
- pest or weed control at 31 g/ha [8, 24]: 0%
- pest or weed control at 62 g/ha [8, 25]: 30%
- pest or weed control at 125 g/ha [8, 26]: 20%
- pest or weed control at 8 g/ha [9, 16]: 50%
- pest or weed control at 16 g/ha ([9]; post-emergence, Postemergence): 60%
- pest or weed control at 31 g/ha ([9]; post-emergence, Postemergence): 80%
- pest or weed control at 62 g/ha [9, 17]: 95%
- pest or weed control at 125 g/ha ([9]; post-emergence, Postemergence): 98%
- pest or weed control at 8 g/ha [9, 18]: 0%
- pest or weed control at 16 g/ha ([9]; pre-emergence, Preemergence): 0%
- pest or weed control at 31 g/ha ([9]; pre-emergence, Preemergence): 20%
- pest or weed control at 125 g/ha ([9]; pre-emergence, Preemergence): 100%
- pest or weed control at 62 g/ha ([9]; pre-emergence, Preemergence): 50%
- pest or weed control at 8 g/ha ([10]; 8 g ai/ha Preemergence): 0%
- pest or weed control at 16 g/ha ([10]; 16 g ai/ha Preemergence): 0%
- pest or weed control at 31 g/ha ([10]; 31 g ai/ha Preemergence): 15%
- pest or weed control at 62 g/ha ([10]; 62 g ai/ha Preemergence): 80%
- pest or weed control at 125 g/ha ([10]; 125 g ai/ha Preemergence): 98%
- pest or weed control at 16 g/ha ([11]; 16 g ai/ha Preemergence): 35%
- pest or weed control at 31 g/ha ([11]; 31 g ai/ha Preemergence): 90%
- pest or weed control at 125 g/ha ([11]; 125 g ai/ha Preemergence): 98%
- pest or weed control at 62 g/ha ([11]; Preemergence): 98%
- pest or weed control at 8 g/ha ([12]; 8 g ai/ha Preemergence): 0%
- pest or weed control at 16 g/ha ([12]; 16 g ai/ha Preemergence): 0%
- pest or weed control at 31 g/ha ([12]; 31 g ai/ha Preemergence): 0%
- pest or weed control at 125 g/ha ([12]; 125 g ai/ha Preemergence): 40%
- pest or weed control at 62 g/ha ([12]; Preemergence): 30%
- pest or weed control at 8 g/ha ([13]; 8 g ai/ha Preemergence): 0%
- pest or weed control at 16 g/ha ([13]; 16 g ai/ha Preemergence): 0%
- pest or weed control at 31 g/ha ([13]; 31 g ai/ha Preemergence): 0%
- pest or weed control at 125 g/ha ([13]; 125 g ai/ha Preemergence): 0%
- pest or weed control at 62 g/ha ([13]; Preemergence): 0%
- pest or weed control at 8 g/ha ([14]; 8 g ai/ha Preemergence): 0%
- pest or weed control at 16 g/ha ([14]; 16 g ai/ha Preemergence): 65%
- pest or weed control at 31 g/ha ([14]; 31 g ai/ha Preemergence): 90%
- pest or weed control at 125 g/ha ([14]; 125 g ai/ha Preemergence): 100%
- pest or weed control at 62 g/ha ([14]; Preemergence): 100%
- pest or weed control at 8 g/ha ([15]; 8 g ai/ha Preemergence): 0%
- pest or weed control at 16 g/ha ([15]; 16 g ai/ha Preemergence): 0%
- pest or weed control at 31 g/ha ([15]; 31 g ai/ha Preemergence): 0%
- pest or weed control at 125 g/ha ([15]; 125 g ai/ha Preemergence): 20%
- pest or weed control at 62 g/ha ([15]; Preemergence): 0%
